Test results published in article PMC6576746, “Rational discovery of dual-indication multi-target PDE/Kinase inhibitor for precision anti-cancer therapy using structural systems pharmacology” (PLoS Computational Biology, 2019).

How the values were obtained:
KIT = KIT (Homo sapiens, UniProt P10721); test: KinomeScan competition binding assay; design: DiscoverX KinomeScan panel kinase; settings: 10 μM levosimendan
FLT3 = biological target: T1, FLT3 (Homo sapiens, UniProt P36888); test: KinomeScan competition binding assay; settings: 10 μM levosimendan
T1 construct: DiscoverX KinomeScan panel kinase
T1 sequence (P36888 27-993): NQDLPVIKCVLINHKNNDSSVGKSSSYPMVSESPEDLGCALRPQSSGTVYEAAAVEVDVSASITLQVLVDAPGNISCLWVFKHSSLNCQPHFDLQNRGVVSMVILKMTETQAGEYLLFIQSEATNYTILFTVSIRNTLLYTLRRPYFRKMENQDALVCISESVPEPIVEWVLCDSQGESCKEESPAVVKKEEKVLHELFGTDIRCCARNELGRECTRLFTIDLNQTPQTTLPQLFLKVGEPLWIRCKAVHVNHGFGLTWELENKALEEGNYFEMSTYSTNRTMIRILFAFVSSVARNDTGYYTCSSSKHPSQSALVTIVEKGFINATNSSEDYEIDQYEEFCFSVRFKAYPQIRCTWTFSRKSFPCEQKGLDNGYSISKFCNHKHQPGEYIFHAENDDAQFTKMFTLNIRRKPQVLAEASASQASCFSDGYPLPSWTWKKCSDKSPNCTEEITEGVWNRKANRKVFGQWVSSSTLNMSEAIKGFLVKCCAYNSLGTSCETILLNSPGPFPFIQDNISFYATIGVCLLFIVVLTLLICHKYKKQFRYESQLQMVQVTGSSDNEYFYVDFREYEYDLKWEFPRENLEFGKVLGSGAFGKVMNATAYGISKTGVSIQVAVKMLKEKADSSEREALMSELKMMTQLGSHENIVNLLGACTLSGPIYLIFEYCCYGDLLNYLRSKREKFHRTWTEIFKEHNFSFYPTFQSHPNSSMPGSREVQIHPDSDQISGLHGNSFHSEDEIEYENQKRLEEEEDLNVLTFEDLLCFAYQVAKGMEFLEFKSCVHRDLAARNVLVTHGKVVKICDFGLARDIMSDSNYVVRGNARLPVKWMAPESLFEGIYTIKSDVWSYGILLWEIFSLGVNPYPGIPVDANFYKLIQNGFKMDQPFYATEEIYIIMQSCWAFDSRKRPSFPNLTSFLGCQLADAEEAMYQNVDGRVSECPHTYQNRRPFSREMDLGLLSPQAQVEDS

RIOK3 = biological target: T2, RIOK3 (Homo sapiens, UniProt O14730); test: KinomeScan competition binding assay; design: DiscoverX KinomeScan panel kinase; settings: 10 μM and 100 μM levosimendan
T2 sequence (O14730 1-519): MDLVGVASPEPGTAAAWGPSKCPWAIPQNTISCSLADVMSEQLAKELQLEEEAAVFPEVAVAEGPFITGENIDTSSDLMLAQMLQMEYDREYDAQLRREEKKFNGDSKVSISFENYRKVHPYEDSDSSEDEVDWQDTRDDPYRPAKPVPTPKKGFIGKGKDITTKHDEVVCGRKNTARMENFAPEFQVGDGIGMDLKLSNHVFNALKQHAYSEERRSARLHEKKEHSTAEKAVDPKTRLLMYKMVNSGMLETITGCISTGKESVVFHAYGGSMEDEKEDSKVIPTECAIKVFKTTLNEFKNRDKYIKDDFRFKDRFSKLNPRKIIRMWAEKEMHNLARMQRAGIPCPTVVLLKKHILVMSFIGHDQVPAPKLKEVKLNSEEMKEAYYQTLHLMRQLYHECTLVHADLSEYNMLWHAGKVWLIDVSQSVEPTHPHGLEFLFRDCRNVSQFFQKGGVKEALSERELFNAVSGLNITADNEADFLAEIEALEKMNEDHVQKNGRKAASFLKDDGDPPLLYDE

PIP5K1A = PIP5K1A (Homo sapiens, UniProt Q99755); test: KinomeScan competition binding assay; design: DiscoverX KinomeScan panel kinase; settings: 10 μM levosimendan
Chain of PIP5K1A (Q99755 whole entry): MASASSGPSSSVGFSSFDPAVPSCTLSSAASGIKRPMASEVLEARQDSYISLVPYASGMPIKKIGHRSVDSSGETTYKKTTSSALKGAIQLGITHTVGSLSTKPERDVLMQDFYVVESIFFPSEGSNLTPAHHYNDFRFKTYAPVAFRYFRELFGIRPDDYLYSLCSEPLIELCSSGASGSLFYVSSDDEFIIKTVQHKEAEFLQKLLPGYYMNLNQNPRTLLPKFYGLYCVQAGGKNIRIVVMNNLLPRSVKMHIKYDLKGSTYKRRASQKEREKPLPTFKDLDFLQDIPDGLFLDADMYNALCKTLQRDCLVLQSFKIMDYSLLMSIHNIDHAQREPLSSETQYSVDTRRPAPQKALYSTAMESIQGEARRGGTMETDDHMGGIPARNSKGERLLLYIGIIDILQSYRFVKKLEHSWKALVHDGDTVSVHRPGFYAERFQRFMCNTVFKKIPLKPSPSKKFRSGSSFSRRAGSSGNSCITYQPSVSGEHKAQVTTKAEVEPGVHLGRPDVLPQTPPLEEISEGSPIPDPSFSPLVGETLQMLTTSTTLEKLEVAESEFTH

[1] = biological target: T3, RIOK1 (serine/threonine-protein kinase RIOK1) (Homo sapiens, UniProt Q9BRS2); test: KinomeScan competition binding assay, dose-response; settings: DiscoverX; Hill equation fit
T3 construct: DiscoverX KinomeScan panel kinase
T3 sequence (Q9BRS2 whole entry): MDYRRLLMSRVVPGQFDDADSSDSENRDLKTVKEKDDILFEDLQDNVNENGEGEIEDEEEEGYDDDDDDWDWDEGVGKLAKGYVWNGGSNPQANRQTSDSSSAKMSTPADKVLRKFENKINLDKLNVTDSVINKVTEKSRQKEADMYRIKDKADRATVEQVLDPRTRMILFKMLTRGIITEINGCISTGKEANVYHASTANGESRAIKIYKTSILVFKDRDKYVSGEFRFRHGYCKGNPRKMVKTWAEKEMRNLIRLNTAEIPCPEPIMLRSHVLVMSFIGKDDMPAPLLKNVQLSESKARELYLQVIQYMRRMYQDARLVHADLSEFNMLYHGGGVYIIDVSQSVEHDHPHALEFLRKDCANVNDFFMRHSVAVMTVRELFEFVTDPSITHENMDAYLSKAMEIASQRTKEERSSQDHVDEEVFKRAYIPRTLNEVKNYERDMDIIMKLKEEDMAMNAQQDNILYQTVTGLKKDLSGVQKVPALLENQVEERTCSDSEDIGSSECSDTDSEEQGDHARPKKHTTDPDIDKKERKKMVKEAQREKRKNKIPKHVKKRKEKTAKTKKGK

T98G = test: cells; design: species or system panel of human cancer cell lines; Eurofins OncoPanel proliferation; nuclei count by high-content fluorescence imaging, 10-point dose response; settings: Homo sapiens, T98G, 72 h, cell count, 3 days
Method in brief: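 Ten half-log concentrations from 100 μM (0.1% DMSO max) applied one day post-seeding, 3-day exposure at 37°C; untreated time-zero plate for GI50. Readout is nuclear cell count by automated fluorescence imaging, giving EC50, IC50, GI50 and 0–10 activity area.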

Chain of KIT (P10721 26-976): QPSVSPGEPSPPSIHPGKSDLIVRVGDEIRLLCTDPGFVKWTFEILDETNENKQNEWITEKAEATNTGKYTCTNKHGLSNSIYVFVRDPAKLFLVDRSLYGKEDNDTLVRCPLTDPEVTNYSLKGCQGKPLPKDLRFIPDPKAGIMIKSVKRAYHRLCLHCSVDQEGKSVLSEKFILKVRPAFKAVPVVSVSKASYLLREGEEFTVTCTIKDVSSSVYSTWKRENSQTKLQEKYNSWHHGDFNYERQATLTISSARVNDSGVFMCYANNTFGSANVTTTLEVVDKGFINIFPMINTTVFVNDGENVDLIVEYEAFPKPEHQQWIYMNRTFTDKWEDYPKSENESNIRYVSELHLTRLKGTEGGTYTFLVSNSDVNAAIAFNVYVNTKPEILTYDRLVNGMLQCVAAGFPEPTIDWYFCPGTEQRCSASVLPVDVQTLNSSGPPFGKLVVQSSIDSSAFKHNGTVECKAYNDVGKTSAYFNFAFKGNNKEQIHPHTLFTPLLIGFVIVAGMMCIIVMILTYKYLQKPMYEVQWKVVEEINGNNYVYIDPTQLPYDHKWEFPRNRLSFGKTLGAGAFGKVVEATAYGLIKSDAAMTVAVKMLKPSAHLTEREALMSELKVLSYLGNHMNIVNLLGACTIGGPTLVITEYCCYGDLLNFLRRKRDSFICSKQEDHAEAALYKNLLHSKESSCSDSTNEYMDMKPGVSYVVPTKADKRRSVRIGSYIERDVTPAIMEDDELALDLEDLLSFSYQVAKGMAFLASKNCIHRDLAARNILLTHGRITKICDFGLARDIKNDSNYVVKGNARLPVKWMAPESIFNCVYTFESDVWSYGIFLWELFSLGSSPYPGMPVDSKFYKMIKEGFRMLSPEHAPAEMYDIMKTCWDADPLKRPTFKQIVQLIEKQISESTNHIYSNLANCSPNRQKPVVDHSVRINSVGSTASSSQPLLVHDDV

C[C@@H]1CC(=O)NN=C1c1ccc(NN=C(C#N)C#N)cc1 [levosimendan]
percentage control at 10 μM (KIT): < 30.0%
percentage control at 10 μM (FLT3): < 30.0%
percentage control (RIOK3): RIOK3, the closest homolog of RIOK1, showed the similar binding strength as RIOK1
percentage control at 10 μM (PIP5K1A): < 30.0%
Kd [1]: 0.82 µM
IC50 (T98G; 50% of maximum possible response): > 100 µM
GI50 (T98G; corrected for time zero): > 100 µM
EC50 (T98G; curve inflection point): > 100 µM
